Results taken from US7019001B2, “Substituted benzothiazole amide derivatives” (Hoffman-La Roche Inc., priority 2001, dated 2006).

Experiments:
[1] = target: T1, human adenosine A2A receptor (Homo sapiens, UniProt P29274); assay: [3H]-SCH-58261 binding assay, human adenosine A2A receptor (CHO cell membranes, SPA); conditions: displacement of [3H]-SCH-58261 (1 nM); recombinant receptor in CHO membranes; Ki by Cheng-Prussoff equation; read-out: hA2 (pKi) (converted)
T1 construct: expressed in transfected cells; host or cells: CHO cells, semliki forest virus expression system; washed membrane pellet used
T1 sequence (P29274 whole entry): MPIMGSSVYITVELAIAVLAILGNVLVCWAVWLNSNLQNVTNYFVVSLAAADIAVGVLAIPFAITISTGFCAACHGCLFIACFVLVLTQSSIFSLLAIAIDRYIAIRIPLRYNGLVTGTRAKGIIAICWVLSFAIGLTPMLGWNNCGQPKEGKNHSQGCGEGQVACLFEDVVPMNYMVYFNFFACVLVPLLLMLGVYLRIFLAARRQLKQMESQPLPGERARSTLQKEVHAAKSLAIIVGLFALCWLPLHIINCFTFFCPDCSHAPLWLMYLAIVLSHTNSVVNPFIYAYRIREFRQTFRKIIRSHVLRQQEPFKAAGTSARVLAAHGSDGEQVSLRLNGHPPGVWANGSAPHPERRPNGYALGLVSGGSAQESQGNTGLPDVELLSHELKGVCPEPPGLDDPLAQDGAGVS
Experimental: Human Adenosine A2A Receptor
The human adenosine A2A receptor was recombinantly expressed in chinese hamster ovary (CHO) cells using the semliki forest virus expression system. Cells were harvested, washed twice by centrifugation, homogenised and again washed by centrifugation. The final washed membrane pellet was suspended in a Tris (50 mM) buffer containing 120 mM NaCl, 5 mM KCl, 2 mM CaCl2 and 10 mM MgCl2 (pH 7.4) (buffer A). The [^3H]-SCH-58261 (Dionisotti et al., 1997, Br J Pharmacol 121, 353; 1 nM) binding assay was carried out in 96-well plates in the presence of 2.5 μg of membrane protein, 0.5 mg of Ysi-poly-1-lysine SPA beads and 0.1 U adenosine deaminase in a final volume of 200 μl of buffer A. Non-specific binding was defined using xanthine amine congener (XAC; 2 μM). Compounds were tested at 10 concentrations from 10 μM–0.3 nM. All assays were conducted in duplicate and repeated at least two times. Assay plates were incubated for 1 hour at room temperature before centrifugation and then bound ligand determined using a Packard Topcount scintillation counter. IC50 values, the concentration where 50% of the […] binding is displaced, were calculated using a non-linear curve fitting program and Ki values calculated using the Cheng-Prussoff equation.

Structure (SMILES)	melting point [°C]	Ki [1] [nM]
COc1ccc(N2CCOCC2)c2sc(NC(=O)N(C)C3CCCCCC3)nc12 [Example 35, 1-Cycloheptyl-3-(4-methoxy-7-morpholin-4-yl-benzothiazol-2-yl)-1-methyl-urea]	198 to 200	12.6
COc1ccc(N2CCOCC2)c2sc(NC(=O)N(C)[C@H]3CC[C@@H](O)CC3)nc12 [Example 29, (cis)-1-(4-Hydroxy-cyclohexyl)-3-(4-methoxy-7-morpholin-4-yl-benzothiazol-2-yl)-1-methyl-urea]	169 to 171	12.6
COc1ccc(N2CCOCC2)c2sc(NC(=O)N(C)C3CCOCC3)nc12 [Example 34, 3-(4-Methoxy-7-morpholin-4-yl-benzothiazol-2-yl)-1-methyl-1-(tetrahydro-pyran-4-yl)-urea]	240 to 242	15.8

Results, then the molecule that gave them:

melting point [°C]	Ki [1] [nM]	Structure (SMILES)
164 to 170	5.01	COc1ccc(N2CCOCC2)c2sc(NC(=O)N3CC4CCC3CO4)nc12 (centres unmarked) [Example 30, 2-Oxa-5-aza-bicyclo[2.2.2]octane-5-carboxylic acid (4-methoxy-7-morpholin-4-yl-benzothiazol-2-yl)-amide]
149	5.01	COc1ccc(N2CCOCC2)c2sc(NC(=O)N3C[C@@H]4CC[C@H]3C4)nc12 [Example 33, (1S,4R)-2-Aza-bicyclo[2.2.1]heptane-2-carboxylic acid (4-methoxy-7-morpholin-4-yl-benzothiazol-2-yl)-amide]
191 to 194	7.94	COc1ccc(N2CCOCC2)c2sc(NC(=O)NC3CCCC3)nc12 [Example 37, 1-Cyclopentyl-3-(4-methoxy-7-morpholin-4-yl-benzothiazol-2-yl)-urea]
158 to 162	12.6	COc1ccc(N2CCOCC2)c2sc(NC(=O)N(C)[C@H]3CC[C@H](O)CC3)nc12 [Example 27, (trans)-1-(4-Hydroxy-cyclohexyl)-3-(4-methoxy-7-morpholin-4-yl-benzothiazol-2-yl)-1-methyl-urea]
